Tested on: NCI-H196 complex spheroid growth, percent test/control
Test: Anticancer human tumor NCI-H196 cell line growth inhibition [AhR];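 also: seven days of drug exposure starting three days after plating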;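 as to viability, T/C: 100% = DMSO vehicle control wells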
Details: for IC50: curve of first compound; for viability, T/C: stronger effect = lower value
How it was run: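 Agents were dosed in half-log steps down from roughly clinical Cmax, or from 10 microM where Cmax was unknown, alone and with AhR antagonists. Read-out: percent test/control growth of tumor spheroids containing HUVEC and MSC stromal cells.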

[1] = second compound 0.1 µM, first compound 0.0316 µM
[2] = second compound 0.1 µM, first compound 0.1 µM
[3] = second compound 0.1 µM, first compound 0.316 µM
[4] = second compound 0.1 µM, first compound 1 µM
[5] = second compound 0.1 µM, first compound 3.16 µM
[6] = second compound 0.1 µM, first compound 10 µM
[7] = second compound 0.316 µM, first compound 0.0316 µM
[8] = second compound 0.316 µM, first compound 0.1 µM
[9] = second compound 0.316 µM, first compound 0.316 µM
[10] = second compound 0.316 µM, first compound 1 µM
[11] = second compound 0.316 µM, first compound 3.16 µM
[12] = second compound 0.316 µM, first compound 10 µM
[13] = second compound 1 µM, first compound 0.0316 µM
[14] = second compound 1 µM, first compound 0.1 µM
[15] = second compound 1 µM, first compound 0.316 µM
[16] = second compound 1 µM, first compound 1 µM
[17] = second compound 1 µM, first compound 3.16 µM
[18] = second compound 1 µM, first compound 10 µM
[19] = second compound 3.16 µM, first compound 0.0316 µM
[20] = second compound 3.16 µM, first compound 0.1 µM
[21] = second compound 3.16 µM, first compound 0.316 µM
[22] = second compound 3.16 µM, first compound 1 µM
[23] = second compound 3.16 µM, first compound 3.16 µM
[24] = second compound 3.16 µM, first compound 10 µM
[25] = second compound 10 µM, first compound 0.0316 µM
[26] = second compound 10 µM, first compound 0.1 µM
[27] = second compound 10 µM, first compound 0.316 µM
[28] = second compound 10 µM, first compound 1 µM
[29] = second compound 10 µM, first compound 3.16 µM
[30] = second compound 10 µM, first compound 10 µM

CC1(C)CCC(CN2CCN(c3ccc(C(=O)NS(=O)(=O)c4ccc(NCC5CCOCC5)c([N+](=O)[O-])c4)c(Oc4cnc5[nH]ccc5c4)c3)CC2)=C(c2ccc(Cl)cc2)C1 + Cc1cncc(-c2nc(NCCc3c[nH]c4ccccc34)c3ncn(C(C)C)c3n2)c1
IC50 (second compound 0.1 µM): > 10 µM
IC50 (second compound 0.316 µM): > 10 µM
IC50 (second compound 1 µM): > 10 µM
IC50 (second compound 3.16 µM): > 10 µM
IC50 (second compound 10 µM): > 10 µM
viability, T/C [1]: 98.3%
viability, T/C [2]: 97.8%
viability, T/C [3]: 89.4%
viability, T/C [4]: 98.6%
viability, T/C [5]: 96.5%
viability, T/C [6]: 107%
viability, T/C [7]: 106%
viability, T/C [8]: 96%
viability, T/C [9]: 95.7%
viability, T/C [10]: 93.1%
viability, T/C [11]: 105%
viability, T/C [12]: 108%
viability, T/C [13]: 91.7%
viability, T/C [14]: 101%
viability, T/C [15]: 108%
viability, T/C [16]: 97.1%
viability, T/C [17]: 103%
viability, T/C [18]: 105%
viability, T/C [19]: 115%
viability, T/C [20]: 105%
viability, T/C [21]: 105%
viability, T/C [22]: 108%
viability, T/C [23]: 95%
viability, T/C [24]: 104%
viability, T/C [25]: 87.8%
viability, T/C [26]: 97.9%
viability, T/C [27]: 107%
viability, T/C [28]: 118%
viability, T/C [29]: 105%
viability, T/C [30]: 101%

CCN(c1cc(-c2ccc(CN3CCOCC3)cc2)cc(C(=O)NCc2c(C)cc(C)[nH]c2=O)c1C)C1CCOCC1 + Cc1cncc(-c2nc(NCCc3c[nH]c4ccccc34)c3ncn(C(C)C)c3n2)c1
IC50 (second compound 0.1 µM): > 3 µM
IC50 (second compound 0.316 µM): > 3 µM
IC50 (second compound 1 µM): > 3 µM
IC50 (second compound 3.16 µM): > 3 µM
IC50 (second compound 10 µM): > 3 µM
viability, T/C (second compound 0.1 µM, first compound 0.00949 µM): 103%
viability, T/C (second compound 0.1 µM, first compound 0.03 µM): 97.3%
viability, T/C (second compound 0.1 µM, first compound 0.0949 µM): 97.7%
viability, T/C (second compound 0.1 µM, first compound 0.3 µM): 96.9%
viability, T/C (second compound 0.1 µM, first compound 0.949 µM): 99.3%
viability, T/C (second compound 0.1 µM, first compound 3 µM): 97.3%
viability, T/C (second compound 0.316 µM, first compound 0.00949 µM): 106%
viability, T/C (second compound 0.316 µM, first compound 0.03 µM): 98.8%
viability, T/C (second compound 0.316 µM, first compound 0.0949 µM): 102%
viability, T/C (second compound 0.316 µM, first compound 0.3 µM): 92.4%
viability, T/C (second compound 0.316 µM, first compound 0.949 µM): 99%
viability, T/C (second compound 0.316 µM, first compound 3 µM): 98.8%
viability, T/C (second compound 1 µM, first compound 0.00949 µM): 103%
viability, T/C (second compound 1 µM, first compound 0.03 µM): 101%
viability, T/C (second compound 1 µM, first compound 0.0949 µM): 111%
viability, T/C (second compound 1 µM, first compound 0.3 µM): 97%
viability, T/C (second compound 1 µM, first compound 0.949 µM): 92.2%
viability, T/C (second compound 1 µM, first compound 3 µM): 93.3%
viability, T/C (second compound 3.16 µM, first compound 0.00949 µM): 109%
viability, T/C (second compound 3.16 µM, first compound 0.03 µM): 105%
viability, T/C (second compound 3.16 µM, first compound 0.0949 µM): 114%
viability, T/C (second compound 3.16 µM, first compound 0.3 µM): 106%
viability, T/C (second compound 3.16 µM, first compound 0.949 µM): 104%
viability, T/C (second compound 3.16 µM, first compound 3 µM): 121%
viability, T/C (second compound 10 µM, first compound 0.00949 µM): 86.9%
viability, T/C (second compound 10 µM, first compound 0.03 µM): 81.2%
viability, T/C (second compound 10 µM, first compound 0.0949 µM): 86.5%
viability, T/C (second compound 10 µM, first compound 0.3 µM): 81.1%
viability, T/C (second compound 10 µM, first compound 0.949 µM): 87.2%
viability, T/C (second compound 10 µM, first compound 3 µM): 90.1%

Cn1ncnc1C1c2n[nH]c(=O)c3cc(F)cc(c23)NC1c1ccc(F)cc1 (stereo not given) + Cc1cncc(-c2nc(NCCc3c[nH]c4ccccc34)c3ncn(C(C)C)c3n2)c1
IC50 (second compound 0.1 µM): > 0.1 µM
IC50 (second compound 0.316 µM): > 0.1 µM
IC50 (second compound 1 µM): > 0.1 µM
IC50 (second compound 3.16 µM): > 0.1 µM
IC50 (second compound 10 µM): > 0.1 µM
viability, T/C (second compound 0.1 µM, first compound 0.000316 µM): 110%
viability, T/C (second compound 0.1 µM, first compound 0.001 µM): 101%
viability, T/C (second compound 0.1 µM, first compound 0.00316 µM): 114%
viability, T/C (second compound 0.1 µM, first compound 0.01 µM): 104%
viability, T/C [1]: 99.3%
viability, T/C [2]: 96%
viability, T/C (second compound 0.316 µM, first compound 0.000316 µM): 112%
viability, T/C (second compound 0.316 µM, first compound 0.001 µM): 98.6%
viability, T/C (second compound 0.316 µM, first compound 0.00316 µM): 110%
viability, T/C (second compound 0.316 µM, first compound 0.01 µM): 107%
viability, T/C [7]: 110%
viability, T/C [8]: 97.8%
viability, T/C (second compound 1 µM, first compound 0.000316 µM): 103%
viability, T/C (second compound 1 µM, first compound 0.001 µM): 102%
viability, T/C (second compound 1 µM, first compound 0.00316 µM): 109%
viability, T/C (second compound 1 µM, first compound 0.01 µM): 111%
viability, T/C [13]: 109%
viability, T/C [14]: 104%
viability, T/C (second compound 3.16 µM, first compound 0.000316 µM): 111%
viability, T/C (second compound 3.16 µM, first compound 0.001 µM): 113%
viability, T/C (second compound 3.16 µM, first compound 0.00316 µM): 126%
viability, T/C (second compound 3.16 µM, first compound 0.01 µM): 96.1%
viability, T/C [19]: 108%
viability, T/C [20]: 103%
viability, T/C (second compound 10 µM, first compound 0.000316 µM): 94.5%
viability, T/C (second compound 10 µM, first compound 0.001 µM): 97.8%
viability, T/C (second compound 10 µM, first compound 0.00316 µM): 91.7%
viability, T/C (second compound 10 µM, first compound 0.01 µM): 112%
viability, T/C [25]: 96.6%
viability, T/C [26]: 104%

NS(=O)(=O)OCC1CC(n2ccc3c(NC4CCc5ccccc54)ncnc32)CC1O (stereo not given) + Cc1cncc(-c2nc(NCCc3c[nH]c4ccccc34)c3ncn(C(C)C)c3n2)c1
IC50 (second compound 0.1 µM): > 10 µM
IC50 (second compound 0.316 µM): > 10 µM
IC50 (second compound 1 µM): > 10 µM
IC50 (second compound 3.16 µM): > 10 µM
IC50 (second compound 10 µM): > 10 µM
viability, T/C [1]: 73.7%
viability, T/C [2]: 65.6%
viability, T/C [3]: 57.3%
viability, T/C [4]: 48.6%
viability, T/C [5]: 77%
viability, T/C [6]: 68.2%
viability, T/C [7]: 80%
viability, T/C [8]: 63.3%
viability, T/C [9]: 56.3%
viability, T/C [10]: 55.6%
viability, T/C [11]: 58.1%
viability, T/C [12]: 64.9%
viability, T/C [13]: 74.3%
viability, T/C [14]: 66.7%
viability, T/C [15]: 60.6%
viability, T/C [16]: 49.3%
viability, T/C [17]: 72%
viability, T/C [18]: 59.3%
viability, T/C [19]: 81.8%
viability, T/C [20]: 81.8%
viability, T/C [21]: 66.8%
viability, T/C [22]: 53.8%
viability, T/C [23]: 60.7%
viability, T/C [24]: 66.2%
viability, T/C [25]: 102%
viability, T/C [26]: 91.7%
viability, T/C [27]: 96.4%
viability, T/C [28]: 79.6%
viability, T/C [29]: 74.8%
viability, T/C [30]: 61.6%

— PubChem BioAssay AID1919016 (Molecular Pharmacology Branch, DTP, NCI, 2023)
